These results are taken from US11286263B2, “Macrocyclic fluorine substituted indole derivatives” (The Broad Institute, Inc., priority 2017, dated 2022).

The structures appear in SMILES notation. pIC50, pKd: −log10 of the molar value. Structures can show the parent of a compound that is named as a salt. Where two headings read alike, the source gives them in different places.

One may read the IC50 as the concentration needed to halve the response being measured. Low readings indicate greater potency, high ones weaker potency. A word on the pKd: it is the negative decadic logarithm of the Kd, by convention in mol/L. What is called kon is the second-order rate constant of association. The low end stands for slow association, the high end for fast association. As a reminder, the koff is a measure of how fast the partners let go of each other. Broadly, the pIC50 is the negative decadic logarithm of the IC50, by convention in mol/L.

Assay [1] has as its target MCL1 protein (Homo sapiens (Human), UniProt Q07820). The experiment in a line: PIxEL: protein-protein interaction in permeabilized cells by ELISA (Assay 5). The conditions noted are these: permeabilized RKO cells, biotin-BIM BH3 peptide, median. The class given is cell-based. As for the experimental part: Assay 5 PI×EL: Protein-Protein Interaction in Permeabilized Cells by ELISA
Most MCL1 protein molecules are localized at the mitochondria outer membrane and sequester pro-apoptotic proteins through binding of their BCL2 homology domain 3 (BH3 domain). MEB buffer (150 mM mannitol, 10 mM HEPES pH 7.5, 50 mM KCl, 20 μM EDTA, 20 μM EGTA, 5 mM potassium succinate, 0.1% protease-free BSA (SIGMA) with low dose digitonin (0.002%) permeabilizes plasma membrane while leaves live mitochondria, where MCL1 maintains its native localization and conformation. Unlike biophysical assays (e.g. TR-FRET) that use truncated recombinant MCL1 protein, this assay uses full length endogenous MCL1 protein at mitochondria outer membrane. It measures the interaction between MCL1 protein and biotinylated BIM BH3 peptide. Compounds can compete with BIM BH3 peptide to bind to MCL1 protein. This serum free assay measures the affinity between MCL1 protein and compound in permeabilized cells, therefore it is not affected by serum binding and cell permeability, and can measure the intrinsic compound affinity.
On day 1, RKO colon cancer cell line cells were plated at 0.8 million cells/ml, 100 μl/well in 96-well flat bottom TC plates (Corning). MCL1 antibody (Santa Cruz sc-12756) were diluted at 200 fold (final concentration 1 μg/ml) in carbonate buffer (Thermo Fisher Scientific, pH 9.6), and 50 μl of diluted antibody was added to each well of high bind ELISA plates (SARSTEDT). Each plate was tapped to make sure liquid covering entire bottom of wells and incubate at 37° C. overnight.
On the second day, MCL1 antibody was washed from ELISA plate. 250 μl Odyssey® Blocking Buffer (PBS) (Li-Cor) was added to each well, incubated at room temperature for at least 1 hour, then washed once with 250 μl 1×PBST. Plates with RKO cells were gently washed once with 100 μl/well PBS, once with 100 μl/well MEB buffer without digitonin, then 100 μl of MEB buffer with 0.002% digitonin was gently added to each well. Compounds were added with HP Tecan compound dispenser in 3-fold dilution series, highest dose 30 μM, 10-dose per compound in quadruplicates. Biotin-BIM peptide (synthesized by 21st Century) was added with HP Tecan compound dispenser at 0.2 μM immediately after the addition of compounds. Plates were rocked for 1 hour at room temperature. Then MEB buffer was aspirated and 50 μl of CHAPS buffer (50 mM Tris-Cl, pH 7.4, 150 mM NaCl, 1% CHAPS, 1 mM EDTA, 1 mM EGTA, complete protease inhibitors (Roche), PhosSTOP (Roche)) was added to each well. Plates were rocked for 1 hour at 4° C., then 45 μl cell lysate from each well were transferred to ELISA plates coated with MCL1 antibody. Plates were incubated overnight in the cold room with rocking.
On the third day, ELISA plates were washed once with 250 μl 1×PBST. Streptavidin-poly-HRP (Thermo Fisher Scientific) was diluted to 20 ng/ml in Odyssey blocking buffer plus 0.05% Triton-100, and 100 μl was added to each well of the ELISA plate. Plates were incubated at room temperature for 1 hour with rocking, then washed with 100 μL 1×PBST for 3 times. Each SuperSignal ELISA Femto Maximum Sensitivity substrate was added to a 50-ml tube and mixed, then 100 μl of mixed substrate was added to each well. Plates were shaken for 1 minute then luminescence was measured by Envision plate reader […]. Signal of each well were normalized by no-compound control and no-cell control. IC50 was calculated using Graphic Pad PRISM software.
In general terms: In an ELISA, binding on a coated surface is turned into a signal by an enzyme label.

Assay [2] concerns the target MCL-1 (Homo sapiens (Human), UniProt Q07820, K194A/K197A/R201A). Kind of assay: Protein-compound interaction assay (SPR assay, Assay 8). The class given is binding. Conditions: immobilized MBP-MCL-1, 25° C., geometric mean. The source says: Assay 8 Protein-Compound Interaction Assay (SPR Assay)
The ability of the compounds described in this invention to bind to MCL-1 may be determined using surface plasmon resonance (SPR). This allows for the quantification of binding in terms of the equilibrium dissociation constant (KD [M]), as well as association and dissociation rate constants (kon [1/M 1/s] and koff [1/s], respectively). The measurements may be performed using Biacore® T200 or Biacore® S200 instruments (GE Healthcare).
For SPR measurements, recombinant MCL-1 (amino acids 173-321, N-terminal fused to Maltose Binding Protein (MBP) (SEQ ID 1) purchased from Beryllium (Bedford, Mass., USA)) was immobilized using standard amine coupling (Johnsson B et al, Anal Biochem. 1991 Nov. 1; 198(2):268-77). Briefly, carboxymethylated dextran biosensor chips (Series S Sensor Chip CMS, GE Healthcare) were activated with 1-ethyl-3-(3-dimethylaminopropyl)-carbodiimide hydrochloride (EDC) and N-hydroxysuccinimide (NHS) according to the supplier's instructions. MBP-MCL-1 was diluted in 1×PBS-P+ (GE Healthcare) and injected on the activated chip surface. Subsequently, a solution of 1 M ethanolamine-HCl (GE Healthcare) was injected to block unreacted groups, resulting in approximately 400-2500 response units (RU) of immobilized protein. A reference surface was generated by treatment with NHS-EDC and ethanolamine-HCl. […] For SPR binding-measurements, serial dilutions of compound (eight dilution steps, typically ranging from 0.2 nM up to 1 μM) were injected over immobilized protein. […] Compounds were injected for 60 s followed by a dissociation time of up to 1000 s.
The double-referenced sensorgrams were fit to a simple reversible Langmuir 1:1 reaction mechanism as implemented in the Biacore® T200 and S200 evaluation software (T200 evaluation software version 2.0 and S200 evaluation software version 1.0, GE Healthcare).
(Surface plasmon resonance follows binding to a sensor surface in real time, without labels.)

Assay [3] has as its system HMC-1-8. The experiment in a line: Antiproliferation assay HMC-1-8 (Assay 7). Conditions: 72 h, HMC-1-8 cells, CellTiter-Glo, single determinations, read-out: IC50 Antiproli HMC-1-8. The format is cell-based. As for the experimental part:
Assessment of the Anti-Proliferative Effect of Compounds in Different Cell Lines
The impact of compounds on the proliferation of different cell lines was assessed using the CellTiter-Glo® Luminescent Cell Viability reagent from Promega (G7573).
In parallel, cells were plated in a reference (day 0) plate for time zero determination.
Rim wells were excluded. The cells were incubated for 72 h hours in a humidified incubator at 37° C. The day 0 plate was measured by adding 30 μL/well of CTG solution (CellTiter-Glo® Luminescent Cell Viability reagent, Promega G7573) to time zero wells in the reference plate followed by a 10 minutes incubation and luminescence reading at 0.1 ms. using the PHERAstar FS microplate reader (BMG Labtech).
After 72 h incubation, the treated plates were measured in the same way as the day 0 plate mentioned above.
(In general: In ATP-based viability assays light output follows the ATP content of the culture.)

Chain of MCL1 protein (Q07820 whole entry, the tested form may be a part): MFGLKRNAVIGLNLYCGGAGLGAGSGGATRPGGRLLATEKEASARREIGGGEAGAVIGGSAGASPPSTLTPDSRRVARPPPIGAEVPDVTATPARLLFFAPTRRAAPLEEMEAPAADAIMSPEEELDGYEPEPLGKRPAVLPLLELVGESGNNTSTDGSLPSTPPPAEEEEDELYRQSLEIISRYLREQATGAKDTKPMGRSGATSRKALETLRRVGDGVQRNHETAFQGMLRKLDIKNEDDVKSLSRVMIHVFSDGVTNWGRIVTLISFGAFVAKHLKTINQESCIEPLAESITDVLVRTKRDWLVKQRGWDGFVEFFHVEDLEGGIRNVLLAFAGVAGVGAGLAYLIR
Chain of MCL-1 (Q07820 whole entry K194A/K197A/R201A, looked up): as the sequence (Q07820 whole entry, the tested form may be a part) above, with K194A, K197A, R201A counted along it

For `CCc1nn(C)c2c1-c1c(F)ccc3c(CCCOc4ccc(F)c5ccccc45)c(C(=O)O)n(c13)CCCCOC2` (single isomer, unassigned; enantiomer 1) [Example 42, 3-ethyl-4-fluoro-7-{3-[(4-fluoronaphthalen-1-yl)oxy]propyl}-1-methyl-1,10,11,12,13,15-hexahydropyrazolo[4′,3′:9,10][1,6]oxazacycloundecino[8,7,6-hi]indole-8-carboxylic acid (enantiomer 1)], the IC50 in assay [1] was 8.91 µM.

In assay [1], `CCc1c2c(nn1C)COCCCCn1c(C(=O)O)c(CCCOc3ccc(F)c4ccccc34)c3ccc(F)c-2c31` (single isomer, unassigned; enantiomer 1) [Example 27, 3-ethyl-4-fluoro-7-{3-[(4-fluoronaphthalen-1-yl)oxy]propyl}-2-methyl-2,10,11,12,13,15-hexahydropyrazolo[4′,3′:9,10][1,6]oxazacycloundecino[8,7,6-hi]indole-8-carboxylic acid-N-ethylethanamine salt (enantiomer 1)] came in with an IC50 of 2.43 µM.

Take `CCc1nn(C)c2c1-c1c(F)ccc3c(CCCOc4cccc5ccccc45)c(C(=O)O)n(c13)CCCCOC2` (racemic) [Example 37, (rac)-12-ethyl-13-fluoro-10-methyl-1-(3-(naphthalen-1-yloxy)propyl)-4,5,6,7,9,10-hexahydro-pyrazolo[4′,3′:9,10][1]oxa[6]azacycloundecino[8,7,6-hi]indole-2-carboxylic acid]: the IC50 in assay [1] came to 7.35 µM.

As to `CCc1c2c(nn1C)COCCCCn1c(C(=O)O)c(CCCOc3cccc4ccccc34)c3ccc(F)c-2c31` (single isomer, unassigned; enantiomer 1) [Example 7, 3-ethyl-4-fluoro-2-methyl-7-{3-[(naphthalen-1-yl)oxy]propyl}-2,10,11,12,13,15-hexahydro-pyrazolo[4′,3′:9,10][1,6]oxazacycloundecino[8,7,6-hi]indole-8-carboxylic acid-N-ethylethanamine salt (enantiomer 1)], inhibition in assay [1] was half-maximal at 2.06 µM (IC50). In assay [2], this compound gave a pKd of 8.64 and a kon of 6e+06 M⁻¹ s⁻¹. Besides, the koff in assay [2] (read-out: koff) came to 0.014 s⁻¹.

`CCc1c2c(nn1C)COCCCCn1c(C(=O)O)c(CCCOc3cccc4cc(F)ccc34)c3ccc(F)c-2c31` (single isomer, unassigned; enantiomer 2) [Example 23, 3-ethyl-4-fluoro-7-{3-[(6-fluoronaphthalen-1-yl)oxy]propyl}-2-methyl-2,10,11,12,13,15-hexahydropyrazolo[4′,3′:9,10][1,6]oxazacycloundecino[8,7,6-hi]indole-8-carboxylic acid-N-ethylethanamine salt (enantiomer 2)] yielded an IC50 in assay [1] of 15.1 µM. In assay [2], the pKd is 7.57, the “koff” value was determined as 0.0026 s⁻¹ and the “kon [1/M 1/s]” value was 9.7E4 1/M 1/s.

As to `Cc1c2c(nn1C)COCCCCn1c(C(=O)O)c(CCCOc3ccc(F)c4ccccc34)c3ccc(F)c-2c31` (single isomer, unassigned; enantiomer 1) [Example 16, 4-fluoro-7-{3-[(4-fluoronaphthalen-1-yl)oxy]propyl}-2,3-dimethyl-2,10,11,12,13,15-hexahydro-pyrazolo[4′,3′:9,10][1,6]oxazacycloundecino[8,7,6-hi]indole-8-carboxylic acid (enantiomer 1)], the IC50 in assay [1] is 32.3 µM.

For the compound `Cc1c2c(nn1C)COCCCCn1c(C(=O)O)c(CCCOc3cccc4ccccc34)c3ccc(F)c-2c31` (racemic) [Example 2, (rac)-4-fluoro-2,3-dimethyl-7-[3-(naphthalen-1-yloxy)propyl]-2,10,11,12,13,15-hexahydro-pyrazolo[4′,3′:9,10][1,6]oxazacycloundecino[8,7,6-hi]indole-8-carboxylic acid], the pIC50 in assay [3] is 5.00. In assay [3] (listed as 02), the pIC50 was 5.12. In assay [2], this compound had a pKd of 7.37 and a kon of 230000 M⁻¹ s⁻¹. Moreover, the koff in assay [2] (read-out: koff) is 0.01 s⁻¹.

The compound `Cc1c2c(nn1C)COCCCCn1c(C(=O)O)c(CCCOc3cccc4cc(F)ccc34)c3ccc(F)c-2c31` (single isomer, unassigned; enantiomer 1) [Example 13, 4-fluoro-7-{3-[(6-fluoronaphthalen-1-yl)oxy]propyl}-2,3-dimethyl-2,10,11,12,13,15-hexahydro-pyrazolo[4′,3′:9,10][1,6]oxazacycloundecino[8,7,6-hi]indole-8-carboxylic acid-N-ethylethanamine salt (enantiomer 1)] registered an IC50 in assay [1] of 0.872 µM. In assay [2], this compound gave a pKd of 9.16 and a kon of 1.1e+07 M⁻¹ s⁻¹. In addition, the koff in assay [2] (read-out: koff) is 0.0077 s⁻¹.

As to `Cc1c2c(nn1C)COCCCCn1c(C(=O)O)c(CCCOc3ccc(F)c4ccccc34)c3ccc(F)c-2c31` (racemic) [Example 15, (rac)-13-fluoro-1-(3-((4-fluoronaphthalen-1-yl)oxy)propyl)-11,12-dimethyl-4,5,6,7,9,11-hexahydropyrazolo[4′,3′:9,10][1]oxa[6]azacycloundecino[8,7,6-hi]indole-2-carboxylic acid], the IC50 in assay [1] stood at 4.16 µM.
